Experimental data taken from the NIST ThermoML archive (doi:10.1021/je100552a).
± gives the expanded uncertainty stated by the source.

Assays:
[1] = xn = mol fraction of the nth substance listed; settings: 101 kPa, Liquid; for viscosity: Capillary tube (Ostwald / Ubbelohde) method; for mass density: Vibrating tube method
[2] = refractive index (Na D-line) (dimensionless); xn = mol fraction of the nth substance listed; settings: 101 kPa, Liquid, Standard Abbe refractometry

Brc1ccccc1 [bromobenzene] + ClCCCl
Settings | mass density, [1] [kg/m3] | refractive index, [2] | viscosity, [1] [mPa·s]
298.15 K, x2 = 0.1014 | 1469.57 ± 0.64 | 1.5479 ± 0.0005 | 1.041 ± 0.0082
298.15 K, x2 = 0.2002 | 1449.41 ± 0.62 | 1.5398 ± 0.0005 | 1.004 ± 0.008
298.15 K, x2 = 0.3004 | 1428.09 ± 0.6 | 1.5313 ± 0.0005 | 0.9677 ± 0.0077
298.15 K, x2 = 0.3999 | 1406.01 ± 0.58 | 1.5218 ± 0.0005 | 0.9348 ± 0.0075
298.15 K, x2 = 0.5008 | 1382.5 ± 0.56 | 1.5107 ± 0.0005 | 0.9036 ± 0.0072
298.15 K, x2 = 0.6001 | 1358.18 ± 0.54 | 1.4984 ± 0.0005 | 0.8752 ± 0.007
298.15 K, x2 = 0.6999 | 1332.44 ± 0.52 | 1.4847 ± 0.0005 | 0.8496 ± 0.0068
298.15 K, x2 = 0.7995 | 1305.43 ± 0.49 | 1.4704 ± 0.0005 | 0.8268 ± 0.0067
298.15 K, x2 = 0.8998 | 1276.72 ± 0.47 | 1.4559 ± 0.0005 | 0.8058 ± 0.0065
303.15 K, x2 = 0.1014 | 1461.55 ± 0.64 | 1.5439 ± 0.0005 | 0.9749 ± 0.0078
303.15 K, x2 = 0.2002 | 1441.65 ± 0.62 | 1.5355 ± 0.0005 | 0.9388 ± 0.0075
303.15 K, x2 = 0.3004 | 1420.51 ± 0.6 | 1.5266 ± 0.0005 | 0.904 ± 0.0072
303.15 K, x2 = 0.3999 | 1398.59 ± 0.58 | 1.517 ± 0.0005 | 0.8714 ± 0.007
303.15 K, x2 = 0.5008 | 1375.26 ± 0.55 | 1.506 ± 0.0005 | 0.8409 ± 0.0068
303.15 K, x2 = 0.6001 | 1351.21 ± 0.53 | 1.494 ± 0.0005 | 0.8141 ± 0.0066
303.15 K, x2 = 0.6999 | 1325.77 ± 0.51 | 1.4808 ± 0.0005 | 0.7886 ± 0.0064
303.15 K, x2 = 0.7995 | 1299.12 ± 0.49 | 1.4671 ± 0.0005 | 0.7646 ± 0.0062
303.15 K, x2 = 0.8998 | 1270.73 ± 0.46 | 1.4528 ± 0.0005 | 0.7445 ± 0.0061
308.15 K, x2 = 0.1014 | 1455.77 ± 0.63 | 1.5412 ± 0.0005 | 0.9162 ± 0.0073
308.15 K, x2 = 0.2002 | 1435.38 ± 0.61 | 1.5321 ± 0.0005 | 0.8809 ± 0.0071
308.15 K, x2 = 0.3004 | 1413.75 ± 0.59 | 1.5227 ± 0.0005 | 0.8474 ± 0.0068
308.15 K, x2 = 0.3999 | 1391.37 ± 0.57 | 1.5128 ± 0.0005 | 0.815 ± 0.0066
308.15 K, x2 = 0.5008 | 1367.54 ± 0.55 | 1.5015 ± 0.0005 | 0.7839 ± 0.0064
308.15 K, x2 = 0.6001 | 1342.97 ± 0.52 | 1.4893 ± 0.0005 | 0.7583 ± 0.0062
308.15 K, x2 = 0.6999 | 1317.02 ± 0.5 | 1.4761 ± 0.0005 | 0.7321 ± 0.006
308.15 K, x2 = 0.7995 | 1289.84 ± 0.48 | 1.4622 ± 0.0005 | 0.711 ± 0.0058
308.15 K, x2 = 0.8998 | 1260.96 ± 0.45 | 1.4479 ± 0.0005 | 0.6904 ± 0.0057
313.15 K, x2 = 0.1014 | 1447.63 ± 0.62 | 1.5372 ± 0.0005 | 0.8463 ± 0.0068
313.15 K, x2 = 0.2002 | 1427.53 ± 0.6 | 1.5279 ± 0.0005 | 0.8155 ± 0.0066
313.15 K, x2 = 0.3004 | 1406.26 ± 0.58 | 1.5182 ± 0.0005 | 0.787 ± 0.0064
313.15 K, x2 = 0.3999 | 1384.19 ± 0.56 | 1.5079 ± 0.0005 | 0.7607 ± 0.0062
313.15 K, x2 = 0.5008 | 1360.71 ± 0.54 | 1.4967 ± 0.0005 | 0.7355 ± 0.006
313.15 K, x2 = 0.6001 | 1336.5 ± 0.52 | 1.4849 ± 0.0005 | 0.712 ± 0.0058
313.15 K, x2 = 0.6999 | 1310.92 ± 0.5 | 1.4722 ± 0.0005 | 0.6917 ± 0.0057
313.15 K, x2 = 0.7995 | 1284.14 ± 0.47 | 1.459 ± 0.0005 | 0.6728 ± 0.0055
313.15 K, x2 = 0.8998 | 1255.65 ± 0.45 | 1.4452 ± 0.0005 | 0.6569 ± 0.0054
